For 14 compounds, Eff. % and logP results are on record in US9765034B2, “5-halogenopyrazole biphenylcarboxamides” (BAYER CROPSCIENCE AG, priority 2012, dated 2017).

One data set has as its system Uromyces appendiculatus. The data set is described as follows: In vivo preventive test on Uromyces appendiculatus (bean rust). As to conditions: bean plants, preventive spray, 500 ppm, grading 11 days after contamination. On the procedure: Example: In Vivo Preventive Test on Uromyces appendiculatus (Bean Rust) […] Bean plants (“Saxa” variety), sown in starter cups on a 50/50 peat soil-pozzolana substrate and grown at 24° C., are treated at the 2-leaf stage (9 cm height) by spraying with the active ingredient prepared as described above. Plants, used as controls, are treated with the mixture of acetone/tween/DMSO/water not containing the active material. After 24 hours, the plants are contaminated by spraying the leaves with an aqueous suspension of Uromyces appendiculatus spores (150 000 spores per ml). […] Grading (% of efficacy) is carried out 11 days after the contamination, in comparison with the control plants. Under these conditions, good (at least 70%) or total protection is observed at a dose of 500 ppm with the following compounds: […]

For another data set, the system named is Septoria tritici. The data set is described as follows: In vivo preventive test on Septoria tritici (leaf spot on wheat). The note with it: wheat plants, preventive spray, 500 ppm, grading 24 days after contamination. On the procedure:
Example: In Vivo Preventive Test on Septoria tritici (Leaf Spot on Wheat) […] Wheat plants (“Scipion” variety), sown in starter cups on a 50/50 peat soil-pozzolana substrate and grown at 22° C., are treated at the 1-leaf stage (10 cm height) by spraying with the active ingredient prepared as described above. Plants, used as controls, are treated with the mixture of acetone/tween/DMSO/water not containing the active material. After 24 hours, the plants are contaminated by spraying the leaves with an aqueous suspension of cryopreserved Septoria tritici spores (500 000 spores per ml). […] Grading (% of efficacy) is carried out 24 days after the contamination, in comparison with the control plants. Under these conditions, good (at least 70%) or total protection is observed at a dose of 500 ppm with the following compounds: […]

For a further data set, the system named is Sphaerotheca fuliginea. The data set is described as follows: In vivo preventive test on Sphaerotheca fuliginea (powdery mildew on cucurbits). As to conditions: gherkin plants, preventive spray, 500 ppm, grading 12 days after contamination. On the procedure: Example: In Vivo Preventive Test on Sphaerotheca fuliginea (Powdery Mildew on Cucurbits) […] Gherkin plants (“Vert petit de Paris” variety), sown in starter cups on a 50/50 peat soil-pozzolana substrate and grown at 24° C., are treated at the Z11 cotyledon stage by spraying with the active ingredient prepared as described above. Plants, used as controls, are treated with the mixture of acetone/tween/DMSO/water not containing the active material. After 24 hours, the plants are contaminated by spraying the cotyledons with an aqueous suspension of Sphaerotheca fuliginea spores (100 000 spores per ml). The spores are collected from infected plants. […] Grading (% of efficacy) is carried out 12 days after the contamination, in comparison with the control plants. Under these conditions, good (at least 70%) or total protection is observed at a dose of 500 ppm with the following compounds: […]

Data set [1] is described as follows: logP by HPLC on reversed phase columns (EEC directive 79/831 Annex V.A8). As to conditions: method [a]: LC-MS at pH 2.7, 0.1% formic acid in water / acetonitrile gradient 10% to 95%.
The next data set deals with Puccinia recondita. The data set is described as follows: In vivo preventive test on Puccinia recondita (brown rust on wheat). The note with it: wheat plants, preventive spray, 500 ppm, grading 12 days after contamination. The method, then: Example: In Vivo Preventive Test on Puccinia recondita (Brown Rust on Wheat) […] Wheat plants (“Scipion” variety), sown in starter cups on a 50/50 peat soil-pozzolana substrate and grown at 22° C., are treated at the 1-leaf stage (10 cm height) by spraying with the active ingredient prepared as described above. Plants, used as controls, are treated with the mixture of acetone/tween/DMSO/water not containing the active material. After 24 hours, the plants are contaminated by spraying the leaves with an aqueous suspension of Puccinia […] spores (100 000 spores per ml). […] Grading (% of efficacy) is carried out 12 days after the contamination, in comparison with the control plants. Under these conditions, good (at least 70%) or total protection is observed at a dose of 500 ppm with the following compounds: […]

The next data set relates to Pyrenophora teres. The data set is described as follows: In vivo preventive test on Pyrenophora teres (net blotch on barley). The note with it: barley plants, preventive spray, 500 ppm, grading 14 days after contamination. On the procedure: Example: In Vivo Preventive Test on Pyrenophora teres (Net Blotch on Barley) […] Barley plants (“Plaisant” variety), sown in starter cups on a 50/50 peat soil-pozzolana substrate and grown at 22° C., are treated at the 1-leaf stage (10 cm height) by spraying with the active ingredient prepared as described above. Plants, used as controls, are treated with the mixture of acetone/tween/DMSO/water not containing the active material. After 24 hours, the plants are contaminated by spraying the leaves with an aqueous suspension of Pyrenophora teres spores (12 000 spores per ml). The spores are collected from a 12-day-old culture. […] Grading (% of efficacy) is carried out 14 days after the contamination, in comparison with the control plants. Under these conditions, good (at least 70%) or total protection is observed at a dose of 500 ppm with the following compounds: […]

The subject of the next data set is Alternaria brassicae. The data set can be described thus: In vivo preventive test on Alternaria brassicae (leaf spot on radish). The note with it: radish plants, preventive spray, 500 ppm, grading 6 days after contamination. The method, then:
Example: In Vivo Preventive Test on Alternaria brassicae (Leaf Spot on Radish) […] Radish plants (“Pernod Clair” variety), sown in starter cups on a 50/50 peat soil-pozzolana substrate and grown at 17° C., are treated at the cotyledon stage by spraying with the active ingredient prepared as described above. Plants, used as controls, are treated with the mixture of acetone/tween/DMSO/water not containing the active material. After 24 hours, the plants are contaminated by spraying the cotyledons with an aqueous suspension of Alternaria brassicae spores (50 000 spores per ml). The spores are collected from a 15-day-old culture. […] Grading (% of efficacy) is carried out 6 days after the contamination, in comparison with the control plants. Under these conditions, good (at least 70%) or total protection is observed at a dose of 500 ppm with the following compounds: […]

The subject of another data set is Botrytis cinerea. The data set is described as follows: In vivo preventive test on Botrytis cinerea (grey mould). As to conditions: gherkin plants, preventive spray, 500 ppm, grading 4 to 5 days after contamination. On the procedure:
Example: In Vivo Preventive Test on Botrytis cinerea (Grey Mould) […] Gherkin plants (“Vert petit de Paris” variety), sown in starter cups on a 50/50 peat soil-pozzolana substrate and grown at 24° C., are treated at the Z11 cotyledon stage by spraying with the active ingredient prepared as described above. Plants, used as controls, are treated with the mixture of acetone/tween/DMSO/water not containing the active material. After 24 hours, the plants are contaminated by spraying the cotyledons with an aqueous suspension of cryopreserved Botrytis cinerea spores (50 000 spores per ml). The spores are suspended in a nutrient solution composed of 10 g/L of PDB, 50 g/L of D-Fructose, 2 g/L of NH4NO3 and 1 g/L of KH2PO4. […] Grading (% of efficacy) is carried out 4 to 5 days after the contamination, in comparison with the control plants. Under these conditions, good (at least 70%) or total protection is observed at a dose of 500 ppm with the following compounds: […]

Another data set deals with Pyricularia oryzae. Type of data set: in vivo. The note with it: rice plants, preventive spray, 500 ppm, grading 6 days after contamination.

In the case of `CON=Cc1ccc(-c2ccccc2NC(=O)c2c(C(F)F)nn(C)c2Cl)cc1C(F)(F)F` [Example 24], the Eff. % in the data set with Uromyces appendiculatus worked out at 100%; with Septoria tritici it was 92%; in the data set with Sphaerotheca fuliginea, 100%; with Puccinia recondita, 100%; in the data set on Pyrenophora teres it was 97%; with Alternaria brassicae, 92%. Further, in data set [1], the logP was 4.25[a].
Take `CC#CCON=Cc1ccc(-c2ccccc2NC(=O)c2c(C(F)F)nn(C)c2Cl)cc1` [Example 22]: the Eff. % in the data set on Uromyces appendiculatus was found to be 100%; in the data set with Septoria tritici it was 96%; with Botrytis cinerea, 98%; in the data set with Sphaerotheca fuliginea, 100%; with Puccinia recondita it was 98%; in the data set on Alternaria brassicae, 75%. In addition, in [1], the logP was 4.13[a].
Regarding `C#CCON=C(C)c1ccc(-c2cccc(NC(=O)c3c(C(F)F)nn(C)c3Cl)c2)cc1` [Example 35], the Eff. % was 98% with Uromyces appendiculatus and 75% in the data set on Septoria tritici. Besides, in [1], the logP was 4.01[a].
Regarding `CC(=NOC(C)C)c1ccc(-c2ccccc2NC(=O)c2c(C(F)F)nn(C)c2Cl)cc1` [Example 1], the Eff. % turned out to be 100% with Uromyces appendiculatus, 75% with Septoria tritici, 100% with Sphaerotheca fuliginea and 98% in the data set with Puccinia recondita. For the same compound, the logP in data set [1] was 5.03[a].
Turning to `CC#CCON=Cc1ccc(-c2ccccc2NC(=O)c2c(C(F)F)nn(C)c2F)cc1` [Example 21], the Eff. % is 100% in the data set with Uromyces appendiculatus; 96% in the data set with Septoria tritici; 98% in the data set with Botrytis cinerea; 100% in the data set with Sphaerotheca fuliginea; 94% in the data set with Puccinia recondita; 88% in the data set on Pyrenophora teres. Moreover, the logP in [1] is 3.87[a].
Regarding `CCON=Cc1ccc(-c2ccccc2NC(=O)c2c(C(F)F)nn(C)c2Cl)cc1C` [Example 39], the Eff. % with Uromyces appendiculatus is reported as 100%; in the data set with Septoria tritici, 92%; in the data set on Botrytis cinerea, 99%; with Sphaerotheca fuliginea, 100%; in the data set with Puccinia recondita it was 97%; in the data set with Pyrenophora teres it was 100%. This compound also showed an Eff. % in the data set with Alternaria brassicae of 94%. In addition, the logP in data set [1] was 4.48[a].
In the case of `CCON=Cc1ccc(-c2ccccc2NC(=O)c2c(C(F)F)nn(C)c2Cl)cc1` [Example 6], the Eff. % in the data set with Uromyces appendiculatus was 100%; in the data set with Botrytis cinerea, 93%; in the data set with Sphaerotheca fuliginea, 100%; in the data set with Puccinia recondita it was 100%; in the data set on Pyricularia oryzae it was 100%; with Pyrenophora teres, 100%. In the data set with Alternaria brassicae, this compound gave an Eff. % of 97%. In addition, the logP in [1] is 4.19[a].
Turning to `CCON=Cc1ccc(-c2ccccc2NC(=O)c2c(C(F)F)nn(C)c2Cl)cc1F` [Example 18], the Eff. % with Uromyces appendiculatus stood at 100%; in the data set with Septoria tritici it was 75%; with Botrytis cinerea it was 70%; with Sphaerotheca fuliginea, 100%; in the data set with Puccinia recondita it was 97%; with Pyrenophora teres it was 100%. This compound also registered an Eff. % in the data set on Alternaria brassicae of 94%. Also, the logP in data set [1] is 4.22[a].
Take `CON=Cc1ccc(-c2c(F)cccc2NC(=O)c2c(C(F)F)nn(C)c2Cl)cc1` [Example 28]: the Eff. % with Uromyces appendiculatus was 100%; in the data set on Septoria tritici, 92%; with Sphaerotheca fuliginea, 100%; in the data set on Puccinia recondita it was 89%; in the data set with Pyrenophora teres, 93%; with Alternaria brassicae, 92%. Moreover, the logP in data set [1] is 3.76[a].
In the case of `CON=Cc1ccc(-c2ccccc2NC(=O)c2c(C(F)F)nn(C)c2Cl)cc1C` [Example 25], the Eff. % with Uromyces appendiculatus worked out at 94%; in the data set with Septoria tritici it was 75%; in the data set with Botrytis cinerea it was 98%; with Sphaerotheca fuliginea it was 100%; in the data set with Puccinia recondita, 100%; in the data set on Pyrenophora teres, 100%. This compound also displayed an Eff. % in the data set on Alternaria brassicae of 94%. Further, the logP in data set [1] is 4.04[a].
As to `CCON=Cc1ccc(-c2c(F)cccc2NC(=O)c2c(C(F)F)nn(C)c2Cl)cc1` [Example 40], the Eff. % with Uromyces appendiculatus is 100%; in the data set with Septoria tritici it was 75%; in the data set with Sphaerotheca fuliginea it was 100%; in the data set on Puccinia recondita it was 97%; in the data set on Pyrenophora teres, 90%; with Alternaria brassicae, 94%. Besides, the logP in [1] is 4.18[a].
Regarding `C#CCON=C(C)c1ccc(-c2ccccc2NC(=O)c2c(C(F)F)nn(C)c2F)cc1` [Example 12], the Eff. % with Uromyces appendiculatus amounted to 100%; with Septoria tritici, 75%; in the data set with Botrytis cinerea, 85%; in the data set with Sphaerotheca fuliginea it was 96%; with Puccinia recondita, 98%; in the data set on Pyrenophora teres, 80%. In the data set on Alternaria brassicae, this compound yielded an Eff. % of 97%. The logP in data set [1] was 3.8[a].
Turning to `CON=Cc1ccc(-c2cc(F)ccc2NC(=O)c2c(C(F)F)nn(C)c2Cl)cc1` [Example 30], the Eff. % came out at 100% in the data set with Uromyces appendiculatus; 97% in the data set on Septoria tritici; 100% in the data set with Sphaerotheca fuliginea; 100% with Puccinia recondita; 93% with Pyrenophora teres; 97% in the data set with Alternaria brassicae. The logP in data set [1] is 3.66[a].
`CON=Cc1c(F)cc(-c2ccccc2NC(=O)c2c(C(F)F)nn(C)c2Cl)cc1F` [Example 23]: the Eff. % in the data set with Uromyces appendiculatus came to 100%; in the data set on Septoria tritici, 97%; with Sphaerotheca fuliginea it was 100%; with Puccinia recondita, 98%; in the data set with Pyrenophora teres, 97%; in the data set on Alternaria brassicae it was 97%. Moreover, the logP in data set [1] is 3.61[a].
